Test results published in a melting point compilation (Tetko et al.; mined from patent text by program, amines drawn as free bases though some values may be those of a salt).

Row | Compound | melting point
1 | CC1(C)CCC(C)(C)c2cc3cc(-c4ccc(C(=O)O)c(Cl)c4)ccc3cc21 | 213 to 215 °C
2 | COc1ccc(C2CC(C(C)(C)C)=NN2c2ccc(C(=O)O)cc2)c(OC)c1 (stereo not given) | 214 °C
3 | CC1CCN(c2nc(-c3ncccn3)cc(Cl)c2-c2c(F)cccc2Cl)CC1 | 129 °C
4 | COC(=O)c1c(N)ncn1C1c2ccccc2CC2CCCCC21 (stereo not given) | 155 to 159 °C
5 | CN1C(=O)COc2c(C(=O)O)cc([N+](=O)[O-])cc21 | 256 to 259 °C
6 | CCN(CC)C(=O)c1nc2cnn(CC)c2nc1-c1ccccc1 | 111 to 112 °C
7 | OCCc1ccc(OCc2ccc(Cl)cc2Cl)cc1 | 55 °C
8 | CN(CCCNC(=O)NCCCOc1cccc(CN2CCCCC2)c1)CCC(c1ccc(F)cc1)c1ccccn1 (stereo not given) | 65 to 67 °C
9 | O=Cc1ccc(=O)[nH]c1 | 222 to 224 °C
10 | COc1c(C)c(C(=O)c2ccc([N+](=O)[O-])cc2)n2ccccc12 | 151 °C
11 | CN(C)CCCCNC(=O)c1cnc2c(c1)N(Cc1cc(Cl)ccc1C(F)(F)F)CCN2 | 182 °C
12 | Nc1ncnc2c([C@@H]3N[C@H](CO)[C@@H](O)[C@H]3O)c[nH]c12 | 238 °C
13 | O=C(CC1CCOCC1)c1c(O)c2cccnc2n(-c2ccccc2)c1=O | 198 to 203 °C
14 | Cc1ccccc1COC(=O)NC(CO)Cc1ccc(O)cc1 (stereo not given) | 78 to 81 °C
15 | N#CCCc1cc(C(=O)O)cc(S(N)(=O)=O)c1Oc1ccccc1 | 259 to 262 °C
16 | CCc1cn(C2CC(O)C(CNCc3ccccc3Br)O2)c(=O)[nH]c1=O (stereo not given) | 144 to 146 °C
17 | O=C(c1ccc(F)cc1)N1CCCC(c2nc(-c3cccc(F)c3)no2)C1 (stereo not given) | 86 to 89 °C
18 | N=C(NO)c1ccc(-c2ccc(-c3nc4cc(C(=N)NO)ccc4[nH]3)cc2)nc1 | 305 to 308 °C
19 | CCCCCCCCC1C=CC(/C=C/c2ccc(C(=O)O)o2)=C2N=C3CCCCC3=C21 (stereo not given) | 128 to 131 °C
20 | CN(C)C(=O)C(C)(C)n1cc(C#N)c(-c2ccccc2)n1 | 116 to 119 °C
21 | Cc1nc(-c2ccccc2)nc(-c2ccncc2)c1N | 208 to 209 °C
22 | OCc1ccc(OCCCCCSc2ccnc3cc(C(F)(F)F)ccc23)cc1 | 98.3 °C
23 | Nc1scc2c(C(=O)O)nn(-c3ccc(Br)cc3)c(=O)c12 | > 300 °C
24 | Nc1cc(C(=O)O)c(Cl)cc1F | 153 to 155 °C
25 | CCCCc1noc(-c2sccc2N)n1 | 69 to 70 °C

Row | Compound | melting point
26 | CCOC(=O)C(=Cc1cccc2ccccc12)c1csc(N)n1 | 155 to 157 °C
27 | CC(C)(O)C(=O)Nc1ccc2oc3ccccc3c2c1 | 134 to 137 °C
28 | CC(=O)NC1Cc2ccc(NC(=O)c3ccccc3-c3ccc(F)cc3)cc2C1 (stereo not given) | 218 to 220 °C
29 | Clc1ccc(-c2nc3n(c2-c2ccc(Cl)cc2)CCC3)cc1 | 189 to 192 °C
30 | CC(=O)C(C(=O)c1ccccc1)N(C)C (stereo not given) | 72 to 74 °C
31 | CC12CCC(C1)C1(C)Oc3ccc(C(O)c4ccc5cc(C(=O)O)ccc5c4)cc3C21C (stereo not given) | 146 to 148 °C
32 | COc1cccc2c1C(=O)c1nc(-c3ccccc3)sc1C2=O | 245 °C
33 | O=C(c1ccc(Br)cc1)N1CC(=O)N(CCc2ccccc2)C(=O)C1 | 110 to 112 °C
34 | FC(F)Sc1nnc(-c2cccs2)s1 | 63 to 64 °C
35 | CSc1sc(C(=O)O)c2c1-c1sc(C(=O)O)cc1CC2 | > 300 °C
36 | COC(=O)C1=C(C)NC(C)=C(C(=O)OCCN2CCN(C(c3ccccc3)c3ccccc3)CC2)C1c1ccco1 (stereo not given) | 71 to 77 °C
37 | Cc1nnc2n1-c1ccc(Cl)cc1C(c1ccccc1)=CC2 | 235 °C
38 | COc1ccc(C(=O)c2ccc(OCc3nc(-c4ccccc4)oc3C)cc2)c(OC(C)C(=O)O)c1 (stereo not given) | 100 to 102 °C
39 | C#CCCCCCCNC(=O)C(F)(F)F | 29.5 to 30 °C
40 | CN(CC1CO1)S(=O)(=O)C(F)(F)C(F)(F)C(F)(F)C(F)(F)S(=O)(=O)N(C)CC1CO1 (stereo not given) | 77 to 79 °C
41 | O=C(O)c1ncncc1Br | 200 °C
42 | NC(=O)C[C@H](NC(=O)OCc1ccccc1)C(=O)N[C@@H](Cc1ccccc1)[C@H](O)C(=O)O | 225 to 227 °C
43 | COC(=O)c1ccc(OS(=O)(=O)C(F)(F)F)c(C23CC4CC(CC(C4)C2)C3)c1 | 95 °C
44 | CC(C)c1cccc(C(C)C)c1-n1nn[nH]c1=O | 177 to 178 °C
45 | COC(=O)C(=O)C1C(=O)C(=O)C(CCCCCCC(=O)O)C1=O (stereo not given) | 127 to 129 °C
46 | Cc1noc(NC(=O)N2CCN(c3nccc(-c4ccc(F)cc4)n3)CC2)c1C | 226 to 227 °C
47 | CN(C)S(=O)(=O)c1cccc(OC(F)F)c1C#N | 100 to 102 °C
48 | Oc1ccc(C2COc3cc(O)ccc3C2c2ccc(OCCN3CCCC3)cc2)cc1 (stereo not given) | 112 to 116 °C
49 | N#Cc1ccc(C2=Nc3ccccc3C(=O)C2=Cc2ccncc2)cc1 | 154 to 156 °C
50 | COC(=O)c1cccc([N+](=O)[O-])c1Nc1cccc2[nH]ncc12 | 152 to 154 °C
